Test results published in US6930185B2, “Melanin-concentrating hormone antagonist” (Takeda Chemical Industries, Ltd., priority 2000, dated 2005).

Row | SMILES | melting point
1 | O=C(Oc1ccc2cc(CN3CCCC3)ccc2c1)N1CCC(c2ccc(Cl)cc2)CC1 | 121 to 123 °C
2 | COc1ccc(C2CCN(C(=O)Oc3ccc4cc(CN5CCCC5)ccc4c3)CC2)cc1 | 127 to 129 °C
3 | Cc1ccc(C2CCN(C(=O)Oc3ccc4cc(CN5CCCC5)ccc4c3)CC2)cc1 | 238 to 240 °C
4 | O=C(Oc1ccc2cc(CN3CCCC3)ccc2c1)N1CCC(c2ccc(F)cc2)CC1 | 106 to 108 °C
5 | Cl.O=C(Oc1ccc2cc(CN3CCCC3)ccc2c1)N1CCC(c2ccccc2)CC1 | 213 to 215 °C
6 | O=C(Nc1ccc2cc(CN3CCCC3)ccc2c1)c1ccc(-c2ccc(Cl)cc2)cc1 [Example 2, 4′-Chloro-N-[6-(1-pyrrolidinylmethyl)-2-naphthyl][1,1′-biphenyl]-4-carboxamide] | 214 to 217 °C
7 | CN(C)Cc1ccc2cc(NC(=O)c3ccc(-c4ccc(Cl)cc4)cc3)ccc2n1 [Example 6, 4′-Chloro-N-[2-[(N,N-dimethylamino)methyl]-6-quinolinyl][1,1′-biphenyl]-4-carboxamide] | 219 to 221 °C
8 | O=C(Nc1ccc2nc(CN3CCOCC3)ccc2c1)c1ccc(-c2ccc(Cl)cc2)cc1 [Example 11, 4′-Chloro-N-[2-(4-morpholinylmethyl)-6-quinolinyl][1,1′-biphenyl]-4-carboxamide] | 236 to 238 °C
9 | O=C(Nc1ccc2nc(CN3CCOCC3)ccc2c1)c1ccc(-c2ccc(F)cc2)cc1 [Example 13, 4′-Fluoro-N-[2-(4-morpholinylmethyl)-6-quinolinyl][1,1′-biphenyl]-4-carboxamide] | 211 to 212 °C
10 | Cc1ccc(-c2ccc(C(=O)Nc3ccc4nc(CN5CCOCC5)ccc4c3)cn2)cc1 [Example 14, 6-(4-Methylphenyl)-N-[2-(4-morpholinylmethyl)-6-quinolinyl]nicotinamide] | 214 to 216 °C
11 | CN(C)Cc1ccc2cc(NC(=O)c3ccc(-c4ccc(F)cc4)cc3)ccc2n1 [Example 16, N-[2-[(Dimethylamino)methyl]-6-quinolinyl]-4′-fluoro[1,1′-biphenyl]-4-carboxamide] | 205 to 208 °C
12 | Cc1ccc(-c2ccc(C(=O)Nc3ccc4nc(CN(C)C)ccc4c3)cn2)cc1 [Example 17, N-[2-[(Dimethylamino)methyl]-6-quinolinyl]-6-(4-methylphenyl)nicotinamide] | 220 to 222 °C
13 | CC1CCN(c2ccc(C(=O)Nc3ccc4nc(CN5CCCC5)ccc4c3)cc2)CC1 [Example 21, 4-(4-Methyl-1-piperidinyl)-N-[2-(1-pyrrolidinylmethyl)-6-quinolinyl]benzamide] | 200 to 202 °C
14 | O=C(Nc1ccc2nc(CN3CCCC3)ccc2c1)c1ccc(N2CCCCC2=O)cc1 [Example 22, 4-(2-Oxo-1-piperidinyl)-N-[2-(1-pyrrolidinylmethyl)-6-quinolinyl]benzamide] | 210 to 212 °C
15 | CN1CCN(Cc2ccc3cc(NC(=O)c4ccc(-c5ccc(Cl)cc5)cc4)ccc3n2)CC1 [Example 24, 4′-Chloro-N-[2-[(4-methyl-1-piperazinyl)methyl]-6-quinolinyl][1,1′-biphenyl]-4-carboxamide] | 215 °C (dec.)
16 | O=C(Nc1ccc2nc(CN3CCCC3)ccc2c1)N1CCC(c2ccc(F)cc2)CC1 [Example 38, 4-(4-Fluorophenyl)-N-[2-(1-pyrrolidinylmethyl)-6-quinolinyl]-1-piperidinecarboxamide] | 206 to 207 °C
17 | O=C(Nc1ccc2nc(CN3CCCC3)ccc2c1)N1CCC(c2ccccc2)CC1 [Example 39, 4-Phenyl-N-[2-(1-pyrrolidinylmethyl)-6-quinolinyl]-1-piperidinecarboxamide] | 187 to 189 °C
18 | O=C(Nc1ccc2nc(CN3CCCC3)ccc2c1)N1CCC(c2ccc(Cl)cc2)CC1 [Example 40, 4-(4-Chlorophenyl)-N-[2-(1-pyrrolidinylmethyl)-6-quinolinyl]-1-piperidinecarboxamide] | 205 °C (dec.)
19 | Cc1ccc(C2CCN(C(=O)Nc3ccc4nc(CN5CCCC5)ccc4c3)CC2)cc1 [Example 41, 4-(4-Methylphenyl)-N-[2-(1-pyrrolidinylmethyl)-6-quinolinyl]-1-piperidinecarboxamide] | 214 to 216 °C
20 | COc1ccc(-c2ccc(C(=O)Nc3ccc4nc(CN5CCCC5)ccc4c3)cn2)cc1 [Example 42, 6-(4-Methoxyphenyl)-N-[2-(1-pyrrolidinylmethyl)-6-quinolinyl]nicotinamide] | 210 °C (dec.)
21 | O=C(Nc1ccc2nc(CN3CCCC3)ccc2c1)c1ccc(-c2ccc(Cl)cc2)nc1 [Example 44, 6-(4-Chlorophenyl)-N-[2-(1-pyrrolidinylmethyl)-6-quinolinyl]nicotinamide] | 225 to 227 °C
22 | O=C(Nc1ccc2nc(CN3CCCC3)ccc2c1)C1CCN(c2ccc(Cl)cc2)CC1 [Example 52, 1-(4-Chlorophenyl)-N-[2-(1-pyrrolidinylmethyl)-6-quinolinyl]-4-piperidinecarboxamide] | 204 to 206 °C
23 | O=C(Nc1ccc2nc(CN3CCCCC3)ccc2c1)N1CCC(c2ccc(Cl)cc2)CC1 [Example 63, 4-(4-Chlorophenyl)-N-[2-(1-piperidinylmethyl)-6-quinolinyl]-1-piperidinecarboxamide] | 214 to 217 °C (dec.)

Results, then the compound that gave them:

Row | melting point | SMILES
24 | 181 to 182 °C | O=C(Nc1ccc2nc(CN3CCCCC3)ccc2c1)c1ccc(-c2ccc(F)cc2F)cc1 (hydrate or solvate) [Example 68, 2′,4′-Difluoro-N-[2-(1-piperidinylmethyl)-6-quinolinyl][1,1′-biphenyl]-4-carboxamide]
25 | 190 to 193 °C | O=C(Nc1ccc2nc(CN3CCCC3)ccc2c1)c1ccc(-c2ccc(F)cc2)cc1 [Example 7, 4′-Fluoro-N-[2-(1-pyrrolidinylmethyl)-6-quinolinyl][1,1′-biphenyl]-4-carboxamide]
26 | 200 to 202 °C | O=C(Nc1ccc2nc(CN3CCCC3)ccc2c1)c1ccc(-c2ccc(Cl)cc2)cc1 [Example 8, 4′-Chloro-N-[2-(1-pyrrolidinylmethyl)-6-quinolinyl][1,1′-biphenyl]-4-carboxamide]
27 | 202 to 204 °C | O=C(Nc1ccc2nc(CN3CCCCC3)ccc2c1)c1ccc(-c2ccc(F)cc2)cc1 [Example 9, 4′-Fluoro-N-[2-(1-piperidinylmethyl)-6-quinolinyl][1,1′-biphenyl]-4-carboxamide]
28 | 211 to 213 °C | O=C(Nc1ccc2nc(CN3CCCCC3)ccc2c1)c1ccc(-c2ccc(Cl)cc2)cc1 [Example 10, 4′-Chloro-N-[2-(1-piperidinylmethyl)-6-quinolinyl][1,1′-biphenyl]-4-carboxamide]
29 | 214 to 215 °C | O=C(Nc1ccc2nc(CN3CCOCC3)ccc2c1)c1ccc(-c2ccccc2)cc1 [Example 12, N-[2-(4-Morpholinylmethyl)-6-quinolinyl][1,1′-biphenyl]-4-carboxamide]
30 | 191 to 194 °C | CN(C)Cc1ccc2cc(NC(=O)c3ccc(-c4ccccc4)cc3)ccc2n1 [Example 15, N-[2-[(Dimethylamino)methyl]-6-quinolinyl][1,1′-biphenyl]-4-carboxamide]
31 | 181 to 183 °C | O=C(Nc1ccc2nc(CN3CCCC3)ccc2c1)c1ccc(-c2ccccc2)cc1 [Example 43, N-[2-(1-Pyrrolidinylmethyl)-6-quinolinyl][1,1′-biphenyl]-4-carboxamide]
32 | 210 °C | O=C(Nc1ccc2nc(CN3CCCC3)ccc2c1)c1ccc(-c2ccc(F)cc2)nc1 [Example 45, 6-(4-Fluorophenyl)-N-[2-(1-pyrrolidinylmethyl)-6-quinolinyl]nicotinamide]
33 | 207 to 209 °C | Cc1ccc(-c2ccc(C(=O)Nc3ccc4nc(CN5CCCC5)ccc4c3)cn2)cc1 [Example 46, 6-(4-Methylphenyl)-N-[2-(1-pyrrolidinylmethyl)-6-quinolinyl]nicotinamide]
34 | 186 to 188 °C | O=C(Nc1ccc2nc(CN3CCCCC3)ccc2c1)c1ccc(-c2ccccc2)cc1 [Example 54, N-[2-(1-Piperidinylmethyl)-6-quinolinyl][1,1′-biphenyl]-4-carboxamide]
35 | 198 to 200 °C | Cc1ccc(-c2ccc(C(=O)Nc3ccc4nc(CN5CCCCC5)ccc4c3)cc2)cc1 [Example 55, 4′-Methyl-N-[2-(1-piperidinylmethyl)-6-quinolinyl][1,1′-biphenyl]-4-carboxamide]
36 | 192 to 194 °C | COc1ccc(-c2ccc(C(=O)Nc3ccc4nc(CN5CCCCC5)ccc4c3)cc2)cc1 [Example 56, 4′-Methoxy-N-[2-(1-piperidinylmethyl)-6-quinolinyl][1,1′-biphenyl]-4-carboxamide]
37 | 215 to 218 °C (dec.) | O=C(Nc1ccc2nc(CN3CCCCC3)ccc2c1)c1ccc(-c2ccc(Cl)cc2)nc1 [Example 57, 6-(4-Chlorophenyl)-N-[2-(1-piperidinylmethyl)-6-quinolinyl]nicotinamide]
38 | 206 to 207 °C (dec.) | Cc1ccc(-c2ccc(C(=O)Nc3ccc4nc(CN5CCCCC5)ccc4c3)cn2)cc1 [Example 58, 6-(4-Methylphenyl)-N-[2-(1-piperidinylmethyl)-6-quinolinyl]nicotinamide]
39 | 209 to 210 °C (dec.) | O=C(Nc1ccc2nc(CN3CCCCC3)ccc2c1)c1ccc(-c2ccc(F)cc2)nc1 [Example 59, 6-(4-Fluorophenyl)-N-[2-(1-piperidinylmethyl)-6-quinolinyl]nicotinamide]
40 | 210 to 211 °C (dec.) | COc1ccc(-c2ccc(C(=O)Nc3ccc4nc(CN5CCCCC5)ccc4c3)cn2)cc1 [Example 60, 6-(4-Methoxyphenyl)-N-[2-(1-piperidinylmethyl)-6-quinolinyl]nicotinamide]
41 | 192 to 193 °C | Cc1ccc(-c2ccc(C(=O)Nc3ccc4nc(CN5CCCC5)ccc4c3)cc2)cc1 [Example 61, 4′-Methyl-N-[2-(1-pyrrolidinylmethyl)-6-quinolinyl][1,1′-biphenyl]-4-carboxamide]
42 | 197 to 199 °C | COc1ccc(-c2ccc(C(=O)Nc3ccc4nc(CN5CCCC5)ccc4c3)cc2)cc1 [Example 62, 4′-Methoxy-N-[2-(1-pyrrolidinylmethyl)-6-quinolinyl][1,1′-biphenyl]-4-carboxamide]
